Assay results reported in the NIST ThermoML archive (doi:10.1021/je0340755).

Experiment: xn = mol fraction of the nth substance listed
Details: 101.3 kPa, Liquid; for viscosity: Capillary tube (Ostwald / Ubbelohde) method

CC(O)C(C)O (configuration not stated) [2,3-butanediol] + O
Details | mass density, 298.15 K [kg/m3] | mass density, 308.15 K [kg/m3] | mass density, 318.15 K [kg/m3] | speed of sound, 298.15 K [m/s] | speed of sound, 308.15 K [m/s] | speed of sound, 318.15 K [m/s] | viscosity, 298.15 K [mPa·s] | viscosity, 308.15 K [mPa·s] | viscosity, 318.15 K [mPa·s]
x2 = 0.0546 | 999.76 | 993.26 | 985.33 | 1483 | 1446.8 | 1418.4 | 41.89 | 21.57 | 12.04
x2 = 0.1435 | 1001.87 | 995.29 | 987.34 | 1501.3 | 1464.7 | 1436 | 36.73 | 19.07 | 10.64
x2 = 0.2458 | 1004.58 | 997.92 | 989.9 | 1520.7 | 1483.6 | 1454.5 | 30.5 | 16.07 | 8.953
x2 = 0.3539 | 1007.87 | 1001.1 | 993.04 | 1548.5 | 1510.7 | 1481.1 | 24.04 | 12.95 | 7.207
x2 = 0.4502 | 1011.19 | 1004.34 | 996.28 | 1576.9 | 1538.4 | 1508.2 | 18.63 | 10.32 | 5.737
x2 = 0.4989 | 1013.01 | 1006.11 | 998.08 | 1589.5 | 1550.7 | 1520.3 | 16.08 | 9.06 | 5.036
x2 = 0.5503 | 1014.99 | 1008.06 | 1000.07 | 1604.9 | 1565.8 | 1535.1 | 13.54 | 7.8 | 4.339
x2 = 0.6581 | 1019.13 | 1012.2 | – | 1637.2 | 1597.3 | – | 8.918 | 5.443 | 3.047
x2 = 0.7518 | 1021.95 | 1015.17 | – | 1667.8 | 1627.1 | – | 5.811 | 3.773 | 2.15
x2 = 0.8626 | 1021.36 | 1015.24 | – | 1673.2 | 1632.4 | – | 3.267 | 2.265 | 1.37
x2 = 0.9092 | 1017.89 | 1012.39 | – | 1657.9 | 1617.5 | – | 2.463 | 1.743 | 1.108
x2 = 0.9148 | 1017.25 | 1011.85 | – | 1651.5 | 1611.2 | – | 2.372 | 1.682 | 1.078
x2 = 0.9248 | 1015.95 | 1010.74 | – | 1645.4 | 1605.3 | – | 2.21 | 1.574 | 1.025
x2 = 0.9305 | 1015.11 | 1010.02 | – | 1640.3 | 1600.3 | – | 2.118 | 1.512 | 0.995
x2 = 0.935 | 1014.4 | 1009.4 | – | – | 1597.2 | – | 2.044 | 1.463 | 0.969
x2 = 0.9452 | 1012.61 | 1007.83 | – | – | 1588.3 | – | 1.878 | 1.352 | 0.915
x2 = 0.9542 | 1010.78 | 1006.24 | – | 1616.9 | 1577.5 | – | 1.729 | 1.254 | 0.866
x2 = 0.9703 | 1006.89 | 1002.81 | – | – | 1570.9 | – | 1.453 | 1.074 | 0.775
x2 = 0.98 | 1004.1 | 1000.33 | – | – | 1557.9 | – | 1.278 | 0.962 | 0.719
x2 = 0.9903 | 1000.7 | 997.3 | – | – | 1547.6 | – | 1.083 | 0.839 | 0.657
x2 = 0.9925 | 999.91 | 996.59 | – | – | 1543.9 | – | 1.04 | 0.812 | 0.644
x2 = 0.9951 | 998.95 | 995.73 | – | 1577.9 | 1539.4 | – | 0.99 | 0.779 | 0.627
